Consider 11 compounds from patent EP0227431A1, “Heterocyclic amides” (BEECHAM GROUP PLC, priority 1985, dated 1987).

For experiment [1], the target named is T1, 5-Lipoxygenase enzyme (10,000 g supernatant from RBL-1 cells) (Rattus norvegicus, UniProt P12527).
T1 construct: 5-Lipoxygenase enzyme was prepared as a 10,000 g supernatant from RBL-1 cells; endogenous in cells; host or cells: RBL-1 cells (10,000 g supernatant, method of Jakschik)
T1 sequence (P12527 1-673): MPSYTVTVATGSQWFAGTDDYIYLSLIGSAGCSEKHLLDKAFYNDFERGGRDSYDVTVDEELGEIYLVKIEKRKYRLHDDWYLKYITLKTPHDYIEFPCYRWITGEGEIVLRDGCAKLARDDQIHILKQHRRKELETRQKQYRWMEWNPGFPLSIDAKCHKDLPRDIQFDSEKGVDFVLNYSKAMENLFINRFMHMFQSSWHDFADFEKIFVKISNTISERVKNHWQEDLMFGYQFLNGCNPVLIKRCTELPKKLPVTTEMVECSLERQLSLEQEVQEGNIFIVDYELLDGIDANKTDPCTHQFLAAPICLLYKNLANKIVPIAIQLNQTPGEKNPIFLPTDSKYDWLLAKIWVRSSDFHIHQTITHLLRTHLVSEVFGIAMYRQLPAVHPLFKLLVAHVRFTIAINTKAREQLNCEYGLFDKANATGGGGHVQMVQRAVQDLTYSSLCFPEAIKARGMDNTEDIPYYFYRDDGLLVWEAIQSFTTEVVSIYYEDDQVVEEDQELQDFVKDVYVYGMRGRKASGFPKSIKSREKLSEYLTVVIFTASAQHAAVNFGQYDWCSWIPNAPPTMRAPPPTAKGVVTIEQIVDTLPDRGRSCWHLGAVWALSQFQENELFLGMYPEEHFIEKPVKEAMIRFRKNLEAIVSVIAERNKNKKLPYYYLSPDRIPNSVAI
The experiment can be described thus: Inhibition of 5-Lipoxygenase Activity (Method B). It counts as biochemical. Conditions: decrease in formation of 5-HETE and 5,12-diHETE relative to control. The method, then:
Inhibition of 5-Lipoxygenase Activity
5-Lipoxygenase enzyme was prepared as a 10,000 g supernatant from RBL-1 cells by the method of Jakschik [Jakschik, B.A., F.F. Sun, L.M. Lee, and M.M.Steinhoff, 1980, Biochem. Biophys. Res. Comm. 95, 103]. The 10,000 g supernatant was diluted with homogenization buffer to the equivalent of 1.5 - 2.5 x 10^7 cells. ml-^1 and made 2mM with respect to CaCl2. Aliquots of 0.5 ml were then dispensed into tubes, and incubated at 29 °C with 5 µl ethanol or compound in ethanol at the desired concentration for 2 min. Then [1-^14C] arachidonic acid was added in buffer to give a final concentration of 6.3 uM and 0.2 µCi per incubation, and the reaction continued at 29 °C for 2 min. The reaction was terminated by adding 1 ml of acetone and cooling on ice, 0.5 ml of ice-cold saline and 10 µl of 2N formic acid were added, and the mixture was extracted with 2 x 2 ml of chloroform. The extract was stored under N2at -20°C until analysis by chromatography. Activity was measured as the percentage of total radioactivity found in 5-HETE and 5,12-diHETE, and inhibition calculated as the decrease in formation of the sum of these two species in compound-treated incubates relative to control incubates.

For experiment [2], the system named is Phospholipase A2 (Naja naja venom, Sigma). The experiment can be described thus: Inhibition of Phospholipase A2 Activity (Method A). The experiment is classed as biochemical. As to conditions: inhibition of arachidonic acid release, tested in triplicate. The method, then: Inhibition of Phospholipase A2 Activity
Enzyme: Phospholipase A2 (Naja naja venom, Sigma)
Substrate: Diarachidoyl phosphatidylcholine (10.6mg) and α-1-palmitoyl-2-[1-^14C]-arachidonyl phosphatidylcholine (0.5uCi; 52.9mCi/mMol) in 28ml of TrisHCl buffer=100mM, pH 8.7) ultrasonicated.
Assay: Incubations containing PLA2 (0.125ng) in Tris HC1 buffer (lOOmM, pH 8.7) and CaCl2 (4mM) were prepared on ice. Immediately prior to incubation at 37°C 5µl of DMSO or compound in DMSO were added. The final assay volume was 1.75ml. After 10 minutes at 37 °C 750µl of substrate was added, with mixing, and the incubation continued for a further 15 min. The reaction was terminated by placing on ice and adding 5ml CHCl3:MeOH (2:lv/v).
The lower organic phase was removed and stored under N2 at-20 °C until analysed. Analysis was by 1-dimensional t.l.c. on polygram Sil G sheets in the solvent system petroleum ether: diethyl ether: acetic acid (60:40:1,v/v). In this system the phospholipid remains at the origin and the arachidonic acid has an approximate Rf. value of 0.36. The areas of interest were cut from the plates and radioactivity determined by liquid scintillation counting.
All compounds were tested in triplicate.
Calculation: The radioactivity of the arachidonic acid is expressed as a percentage of the total dpm cut from the plate. The percentage inhibition of arachidonic acid release compared to that of the control was calculated after correction for the level of spontaneous release where: • x = % corrected mean arachidonic acid release in control • y = % corrected arachidionic acid release after inhibition • % inhibition [formula]
The mean of the triplicate samples was calculated giving z + standard deviation%.

By inhibition is commonly meant how much of the control response was suppressed.

Compound `COC(=O)c1sc(-c2ccc(Cl)cc2)cc1NC(=O)C=Cc1ccc(OC(C)=O)c(OC(C)=O)c1` [Example 16, Methyl-5-(4-chlorophenyl)-3-(3,4-diacetoxycinnamoyl-amino)-thiophene-2-carboxylate] returned an inhibition at 20 µM in experiment [1] of 60%.
Regarding `CCOC(=O)c1cccnc1NC(=O)C=Cc1ccc(O)c(O)c1` [Example 10, Ethyl-2 [N-(3,4-dihydroxycinnamoyl)amino]pyridine-3-carboxylate], testing at 20 µM in experiment [1] gave an inhibition of 95%. In experiment [2], the “Phospholipase A2 Inhibition at 20µM (%)” value worked out at 10%.
For `COC(=O)c1sccc1NC(=O)C=Cc1ccc(OC)c(OC)c1` [Example 6, Methyl-3[N-(3,4-dimethoxycinnamoyl)amino]thiophene-2-carboxylate], in that order: 81% and 31%.
With `CCOC(=O)c1c(NC(=O)C=Cc2ccc(O)c(O)c2)sc2c1CCCC2` [Example 11, Ethyl-2[N-3,4-dihydroxycinnamoyl)amino]4,5,6,7-tetrahydrobenzo [bj thiophene-3-carboxylate], 20 µM produced 91% inhibition in experiment [1]. In experiment [2], the “Phospholipase A2 Inhibition at 20µM (%)” value is 92%.
Consider `O=C(C=Cc1ccc(O)c(O)c1)Nc1ncccc1C(=O)O` [Example 14, 2-[N-(3,4-dihydroxycinnamoyl)amino]pyridine 3-carboxylic acid], for which, in experiment [1], the inhibition at 20 µM was determined as 67%.
The compound `COC(=O)c1sccc1NC(=O)C=Cc1ccc(O)c(O)c1` [Example 7] registered an inhibition at 20 µM in experiment [1] of 93%. In addition, the “Phospholipase A2 Inhibition at 20µM (%)” value in experiment [2] was 84%.
`COC(=O)c1sccc1NC(=O)C=Cc1ccc(O)c(OC)c1` [Example 8] returned an inhibition at 20 µM in experiment [1] of 98%. The “Phospholipase A2 Inhibition at 20µM (%)” value in experiment [2] is reported as 26%.
On to `COc1ccc(C=CC(=O)Nc2ccsc2C(=O)O)cc1OC` [Example 15, 3-[N-(3,4-Dimethoxycinnamoyl)amino]thiophene-2-carboxylic acid], for which the inhibition at 20 µM in experiment [1] is 0%. The “Phospholipase A2 Inhibition at 20µM (%)” value in experiment [2] came out at 10%.
For `COc1cc(C=CC(=O)Nc2ccsc2C(=O)O)ccc1O` [Example 13, 3-[N-(4-hydroxy-3-methoxycinnamoyl)-amino]thiophene-2-carboxylic acid.], in that order: 64% and 26%.
For `O=C(C=Cc1ccc(O)c(O)c1)Nc1ccsc1C(=O)O` [Example 12], in that order: 88% and 36%.
The like results for `CCOC(=O)c1c[nH]nc1NC(=O)C=Cc1ccc(O)c(O)c1` [Example 9, Ethyl 3-[N-(3,4-dihydroxycinnamol)amino]pyrazole-4-carboxylate] were, in that order, 97% and 71%.
